Measured values: patent publication US6638973B2, “Taxane formulations” (FSU Research Foundation, Inc., priority 2000, dated 2003)

tested on: HCT116 cells; experiment: In vitro cytotoxicity measured by the cell colony formation assay; assay type: cell-based; conditions: HCT116 cells, 72 h incubation with drug, colonies counted after 7 days; ID50 = drug concentration producing 50% inhibition of colony formation; read-out: IN VITRO ID 50 (nm) HCT116
Outline: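 Colony-forming survival was scored 7 days after a 72 h, 37 °C compound exposure followed by washout into fresh medium.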

`C/C=C/C(=O)N[C@@H](c1ccco1)[C@@H](O)C(=O)O[C@H]1C[C@@]2(O)[C@@H](OC(=O)c3ccccc3)C3[C@](C)(C(=O)[C@H](O)C(=C1C)C2(C)C)[C@@H](OC(=O)OC)C[C@H]1OC[C@@]31OC(C)=O` (some centres unmarked) [Compound 4744] and `C/C=C/C(=O)N[C@@H](c1ccco1)[C@@H](O)C(=O)O[C@H]1C[C@@]2(O)[C@@H](OC(=O)c3ccccc3)C3[C@](C)(C(=O)[C@H](O)C(=C1C)C2(C)C)[C@@H](OC(=O)OCC)C[C@H]1OC[C@@]31OC(C)=O` (some centres unmarked) [Compound 4818] cannot be ordered by IC50: under 1 nM for the first, under 1 nM for the second.

`C/C=C/C(=O)N[C@@H](c1cccs1)[C@@H](O)C(=O)O[C@H]1C[C@@]2(O)[C@@H](OC(=O)c3ccccc3)C3[C@](C)(C(=O)[C@H](O)C(=C1C)C2(C)C)[C@@H](OC(=O)OC)C[C@H]1OC[C@@]31OC(C)=O` (some centres unmarked) [Compound 4766] and `C/C=C/C(=O)N[C@@H](c1cccs1)[C@@H](O)C(=O)O[C@H]1C[C@@]2(O)[C@@H](OC(=O)c3ccccc3)C3[C@](C)(C(=O)[C@H](O)C(=C1C)C2(C)C)[C@@H](OC(=O)OCC)C[C@H]1OC[C@@]31OC(C)=O` (some centres unmarked) [Compound 4855] cannot be ordered by IC50: under 1 nM for the first, under 1 nM for the second.

`CCOC(=O)O[C@H]1C(=O)[C@@]2(C)C([C@H](OC(=O)c3ccccc3)[C@]3(O)C[C@H](OC(=O)[C@H](O)[C@@H](NC(=O)OCC(C)C)C4CC4)C(C)=C1C3(C)C)[C@]1(OC(C)=O)CO[C@@H]1C[C@@H]2O` (some centres unmarked) [Compound 4844] and `CCOC(=O)O[C@H]1C(=O)[C@@]2(C)C([C@H](OC(=O)c3ccccc3)[C@]3(O)C[C@H](OC(=O)[C@H](O)[C@@H](NC(=O)OCC(C)C)c4ccsc4)C(C)=C1C3(C)C)[C@]1(OC(C)=O)CO[C@@H]1C[C@@H]2O` (some centres unmarked) [Compound 4924] cannot be ordered by IC50: under 1 nM for the first, under 10 nM for the second.

`C/C=C/C(=O)N[C@@H](c1ccoc1)[C@@H](O)C(=O)O[C@H]1C[C@@]2(O)[C@@H](OC(=O)c3ccccc3)C3[C@](C)(C(=O)[C@H](O)C(=C1C)C2(C)C)[C@@H](OC(=O)OC)C[C@H]1OC[C@@]31OC(C)=O` (some centres unmarked) [Compound 4877] and `C/C=C/C(=O)N[C@@H](c1ccoc1)[C@@H](O)C(=O)O[C@H]1C[C@@]2(O)[C@@H](OC(=O)c3ccccc3)C3[C@](C)(C(=O)[C@H](O)C(=C1C)C2(C)C)[C@@H](OC(=O)OCC)C[C@H]1OC[C@@]31OC(C)=O` (some centres unmarked) [Compound 4904] cannot be ordered by IC50: under 1 nM for the first, under 10 nM for the second.

`CC=CC(=O)NC(c1ccoc1)C(O)C(=O)OC1CC2(O)C(OC(=O)c3ccccc3)C3C4(OC(C)=O)COC4CC(O)C3(C)C(=O)C(OC(=O)OCC)C(=C1C)C2(C)C` (centres unmarked) [Compound 4959] and `C/C=C/C(=O)N[C@@H](c1ccsc1)[C@@H](O)C(=O)O[C@H]1C[C@@]2(O)[C@@H](OC(=O)c3ccccc3)C3[C@](C)(C(=O)[C@H](O)C(=C1C)C2(C)C)[C@@H](OC(=O)OCC)C[C@H]1OC[C@@]31OC(C)=O` (some centres unmarked) [Compound 4999] cannot be ordered by IC50: under 1 nM for the first, under 1 nM for the second.

`C/C=C/C(=O)N[C@@H](c1ccsc1)[C@@H](O)C(=O)O[C@H]1C[C@@]2(O)[C@@H](OC(=O)c3ccccc3)C3[C@](C)(C(=O)[C@H](O)C(=C1C)C2(C)C)[C@@H](OC(=O)OC)C[C@H]1OC[C@@]31OC(C)=O` (some centres unmarked) [Compound 4969] and `CCOC(=O)O[C@H]1C[C@H]2OC[C@@]2(OC(C)=O)C2[C@H](OC(=O)c3ccccc3)[C@]3(O)C[C@H](OC(=O)[C@H](O)[C@@H](NC(=O)OCC(C)C)c4ccsc4)C(C)=C([C@@H](O)C(=O)[C@@]21C)C3(C)C` (some centres unmarked) [Compound 4979] cannot be ordered by IC50: under 1 nM for the first, under 10 nM for the second.

same assay, conditions: HCT116 colony formation; 72 h drug incubation, colonies counted after 7 days; Example 5, C-7 ester/C-10 hydroxy taxanes; read-out: IN VITRO ID 50 (nm) HCT116

`C/C=C/C(=O)N[C@@H](c1ccco1)[C@@H](O)C(=O)O[C@H]1C[C@@]2(O)[C@@H](OC(=O)c3ccccc3)C3[C@](C)(C(=O)[C@H](O)C(=C1C)C2(C)C)[C@@H](OC(=O)CCC)C[C@H]1OC[C@@]31OC(C)=O` (some centres unmarked) [Compound 4737] and `C/C=C/C(=O)N[C@@H](c1cccs1)[C@@H](O)C(=O)O[C@H]1C[C@@]2(O)[C@@H](OC(=O)c3ccccc3)C3[C@](C)(C(=O)[C@H](O)C(=C1C)C2(C)C)[C@@H](OC(=O)CCC)C[C@H]1OC[C@@]31OC(C)=O` (some centres unmarked) [Compound 4757] cannot be ordered by IC50: under 1 nM for the first, under 1 nM for the second.

`CCC(=O)O[C@H]1C[C@H]2OC[C@@]2(OC(C)=O)C2[C@H](OC(=O)c3ccccc3)[C@]3(O)C[C@H](OC(=O)[C@H](O)[C@@H](NC(=O)OCC(C)C)c4ccoc4)C(C)=C([C@@H](O)C(=O)[C@@]21C)C3(C)C` (some centres unmarked) [Compound 4787] and `CCCC(=O)O[C@H]1C[C@H]2OC[C@@]2(OC(C)=O)C2[C@H](OC(=O)c3ccccc3)[C@]3(O)C[C@H](OC(=O)[C@H](O)[C@@H](NC(=O)OCC(C)C)c4ccoc4)C(C)=C([C@@H](O)C(=O)[C@@]21C)C3(C)C` (some centres unmarked) [Compound 4828] cannot be ordered by IC50: under 10 nM for the first, under 10 nM for the second.

`C/C=C/C(=O)N[C@@H](c1ccoc1)[C@@H](O)C(=O)O[C@H]1C[C@@]2(O)[C@@H](OC(=O)c3ccccc3)C3[C@](C)(C(=O)[C@H](O)C(=C1C)C2(C)C)[C@@H](OC(=O)CC)C[C@H]1OC[C@@]31OC(C)=O` (some centres unmarked) [Compound 4898] and `C/C=C/C(=O)N[C@@H](c1ccoc1)[C@@H](O)C(=O)O[C@H]1C[C@@]2(O)[C@@H](OC(=O)c3ccccc3)C3[C@](C)(C(=O)[C@H](O)C(=C1C)C2(C)C)[C@@H](OC(=O)CCC)C[C@H]1OC[C@@]31OC(C)=O` (some centres unmarked) [Compound 4939] cannot be ordered by IC50: under 1 nM for the first, under 1 nM for the second.

same assay, conditions: HCT116 colony formation; 72 h drug incubation, colonies counted after 7 days; Example 10, C-10 ester/C-7 hydroxy taxanes; read-out: IN VITRO ID 50 (nm) HCT116

`CC(=O)O[C@@]12CO[C@@H]1C[C@H](O)[C@@]1(C)C(=O)[C@H](OC(=O)C3CC3)C3=C(C)[C@@H](OC(=O)[C@H](O)[C@H](C=C(C)C)NC(=O)OCC(C)C)C[C@@](O)([C@@H](OC(=O)c4ccccc4)C12)C3(C)C` (some centres unmarked) [Compound 4720] and `CC(=O)O[C@@]12CO[C@@H]1C[C@H](O)[C@@]1(C)C(=O)[C@H](OC(=O)C3CC3)C3=C(C)[C@@H](OC(=O)[C@H](O)[C@@H](NC(=O)OCC(C)C)c4ccsc4)C[C@@](O)([C@@H](OC(=O)c4ccccc4)C12)C3(C)C` (some centres unmarked) [Compound 5011] cannot be ordered by IC50: under 10 nM for the first, under 10 nM for the second.

`CCC(=O)O[C@H]1C(=O)[C@@]2(C)C([C@H](OC(=O)c3ccccc3)[C@]3(O)C[C@H](OC(=O)[C@H](O)[C@@H](NC(=O)OCC(C)C)C4CC4)C(C)=C1C3(C)C)[C@]1(OC(C)=O)CO[C@@H]1C[C@@H]2O` (some centres unmarked) [Compound 4799] and `CCCC(=O)O[C@H]1C(=O)[C@@]2(C)C([C@H](OC(=O)c3ccccc3)[C@]3(O)C[C@H](OC(=O)[C@H](O)[C@@H](NC(=O)OCC(C)C)C4CC4)C(C)=C1C3(C)C)[C@]1(OC(C)=O)CO[C@@H]1C[C@@H]2O` (some centres unmarked) [Compound 4808] cannot be ordered by IC50: under 1 nM for the first, under 10 nM for the second.

`CCCC(=O)O[C@H]1C(=O)[C@@]2(C)C([C@H](OC(=O)c3ccccc3)[C@]3(O)C[C@H](OC(=O)[C@H](O)[C@@H](NC(=O)OCC(C)C)c4ccsc4)C(C)=C1C3(C)C)[C@]1(OC(C)=O)CO[C@@H]1C[C@@H]2O` (some centres unmarked) [Compound 4834] and `C/C=C/C(=O)N[C@@H](c1ccoc1)[C@@H](O)C(=O)O[C@H]1C[C@@]2(O)[C@@H](OC(=O)c3ccccc3)C3[C@](C)(C(=O)[C@H](OC(=O)CCC)C(=C1C)C2(C)C)[C@@H](O)C[C@H]1OC[C@@]31OC(C)=O` (some centres unmarked) [Compound 4919] cannot be ordered by IC50: under 10 nM for the first, under 1 nM for the second.

`C/C=C/C(=O)N[C@@H](c1ccoc1)[C@@H](O)C(=O)O[C@H]1C[C@@]2(O)[C@@H](OC(=O)c3ccccc3)C3[C@](C)(C(=O)[C@H](OC(=O)CC)C(=C1C)C2(C)C)[C@@H](O)C[C@H]1OC[C@@]31OC(C)=O` (some centres unmarked) [Compound 4888] and `C/C=C/C(=O)N[C@@H](c1ccoc1)[C@@H](O)C(=O)O[C@H]1C[C@@]2(O)[C@@H](OC(=O)c3ccccc3)C3[C@](C)(C(=O)[C@H](OC(=O)C4CC4)C(=C1C)C2(C)C)[C@@H](O)C[C@H]1OC[C@@]31OC(C)=O` (some centres unmarked) [Compound 4944] cannot be ordered by IC50: under 1 nM for the first, under 1 nM for the second.
